Holding throughout (assay): DTP human tumour cell line panel, 48 h
Assay [1] deals with 786-0 renal.
The subject of assay [2] is A549 NSCLC.
Assay [3] relates to HCC-2998 colon.
Assay [4] has as its system HCT-116 colon.
Assay [5] relates to HCT-15 colon.
Assay [6] concerns HOP-62 NSCLC.
The subject of assay [7] is HS 578T breast.
The subject of assay [8] is K-562 leukemia.
In assay [9] the test system is MALME-3M melanoma.
For assay [10], the system named is NCI-H23 lung.
Assay [11] has as its system OVCAR-3 ovarian.
The test system of assay [12] is OVCAR-5 ovarian.
For assay [13], the system named is OVCAR-8 ovarian.
The subject of assay [14] is RXF 393 renal.
For assay [15], the system named is SF-268 CNS.
Assay [16] concerns SF-295 CNS.
Assay [17] relates to SK-MEL-28 melanoma.
The subject of assay [18] is SK-OV-3 ovarian.
Assay [19] concerns UACC-62 melanoma.

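Tested at 5 concentrations; 48 h exposure; 96-well plates; endpoints linearly interpolated, else capped at highest concentration. Definition used: TGI = concentration required for complete inhibition of growth.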

As usually defined, the TGI is the concentration giving total growth inhibition. A high value points to less potent growth arrest.

Consider `COc1ccc(-c2c(-c3ccccc3)c(C)nc3[nH]c(=S)[nH]c(=S)c23)cc1OC`, for which the total growth inhibition concentration (TGI) is above 100 µM in [1]; above 100 µM in assay [2]; above 100 µM in assay [3]; 64.9 µM in assay [4]; above 100 µM in assay [5]; 89.6 µM in assay [6]. Further, the TGI in assay [7] is above 100 µM; in assay [8], above 100 µM; in assay [9], 90.1 µM; in [10] it was above 100 µM; in assay [11] it was 40.2 µM; in [12] it was above 100 µM. The TGI in assay [13] is above 100 µM; in assay [14] it was above 100 µM; in assay [15] it was above 100 µM; in [16], above 100 µM; in assay [17] it was 52.8 µM; in [18], above 100 µM. In assay [19], this compound gave a concentration for total growth inhibition (TGI) of 40.2 µM.
As for `CC(=O)c1c2c(cc3c1CC1(Cc4cc5c(cc4C1)C(=O)CCC5)C3)CCCC2` (configuration not stated), the total growth inhibition concentration (TGI) in assay [1] is 33.1 µM; in [2], above 88.2 µM; in assay [3] it was 97.9 µM; in assay [4], above 47.1 µM; in [5] it was 19.3 µM; in assay [6], 43.4 µM. Moreover, the TGI in assay [7] was above 88.3 µM; in [8] it was 4.79 µM; in [9], above 100 µM; in assay [10], above 100 µM; in [11], 54.3 µM; in assay [12], above 100 µM. In addition, the TGI in assay [13] is above 80.6 µM; in [14], above 25.7 µM; in [15] it was 65 µM; in assay [16], above 45.5 µM; in [17], 69.8 µM; in assay [18] it was above 100 µM. Further, the total growth inhibition concentration (TGI) in [19] was above 39.2 µM.
In the case of `C=C1C2CC3CCC2C(OC(=O)c2ccccc2C(=O)O)C13` (configuration not stated), the TGI in assay [1], in [2], in assay [3], in assay [4], in [5] and in assay [6] was above 100 µM each time. In addition, the TGI in assay [7], in assay [8], in assay [9], in [10], in [11] and in assay [12] was above 100 µM in each case. For the same compound, the TGI in assay [13], in [14], in assay [15], in assay [16], in assay [17] and in [18] was above 100 µM throughout. The same compound displayed a TGI in [19] above 100 µM.
Regarding `C=CCSC1=N/C(=C\c2ccc(OC)cc2)C(=O)N1CC=C`, the TGI in assay [1] is above 100 µM; in assay [2] it was above 100 µM; in assay [3], 79.7 µM; in assay [4], above 100 µM; in [5], above 100 µM; in assay [6] it was above 100 µM. Further, the TGI is above 100 µM in [7]; above 100 µM in [8]; 87.7 µM in assay [9]; above 100 µM in assay [10]; above 100 µM in assay [11]; above 100 µM in assay [12]. In addition, the TGI in assay [13] is above 100 µM; in assay [14] it was 50.1 µM; in [15] it was above 100 µM; in assay [16], above 100 µM; in assay [17], above 100 µM; in assay [18] it was above 100 µM. The same compound came in with a total growth inhibition concentration (TGI) in assay [19] above 100 µM.
For `C=CCc1oc(C)nc1CCCC`, the TGI in assay [1], in assay [2], in [3], in assay [4], in [5] and in assay [6] was above 100 µM throughout. In addition, the TGI in assay [7], in assay [8], in [9], in [10], in assay [11] and in assay [12] was above 100 µM each time. The TGI in assay [13], in [14], in assay [15], in assay [16], in [17] and in assay [18] was above 100 µM each time. In [19], this compound gave a TGI above 100 µM.
Take `Cc1cc2c(nn1)CCc1c-2no[n+]1[O-]`: the TGI in [1], in [2], in assay [3], in assay [4], in assay [5] and in [6] was above 100 µM each time. Also, the TGI in assay [7], in assay [8], in assay [9], in assay [10], in [11] and in assay [12] was above 100 µM in each case. For the same compound, the TGI in [13], in [14], in assay [15], in assay [16], in assay [17] and in assay [18] was above 100 µM in each case. Also, the concentration for total growth inhibition (TGI) in assay [19] is above 100 µM.
Regarding `COC1(OC)N=C(N)C2(C#N)C(C)=C3NCN(C)N=C3C12C#N` (configuration not stated), the TGI in [1], in assay [2], in assay [3], in [4], in [5] and in assay [6] was above 100 µM in each case. In addition, the TGI in assay [7], in assay [8], in assay [9], in assay [10], in assay [11] and in assay [12] was above 100 µM in each case. For the same compound, the TGI in assay [13], in [14], in assay [15], in [16], in [17] and in assay [18] was above 100 µM each time. In addition, the concentration for total growth inhibition (TGI) in assay [19] was above 100 µM.
For the compound `CCO[C@@]12CCC3CC4CC[C@@](OCC)(O1)C4C32` (some centres not stated), the TGI in assay [1], in [2], in assay [3], in assay [4], in assay [5] and in [6] was above 100 µM throughout. The concentration for total growth inhibition (TGI) in assay [7], in [8], in assay [9], in assay [10], in [11] and in [12] was above 100 µM throughout. For the same compound, the TGI in assay [13], in [14], in assay [15], in assay [16], in [17] and in assay [18] was above 100 µM each time. The same compound returned a TGI in assay [19] above 100 µM.

These data come from PubChem BioAssay (NCI).
